From PubChem BioAssay AID1259411 (Chemical Carcinogenesis Research Information System (CCRIS), 2018)
The source made the active and inactive calls. How the calls were made is not given here.

Test system: rodent carcinogenicity bioassays, tumor incidence
Experiment: CCRIS carcinogenicity studies
Procedure, shortened: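 Archive of carcinogenicity, mutagenicity, tumor promotion and tumor inhibition results drawn from journals, NCI reports and other sources, expert-reviewed; covers 1985-2011 and is no longer updated.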

In the case of `[O]=[Co]`, the carcinogen call (Species: RAT, Strain/Sex: SPRAGUE-DAWLEY/FEMALE, Route: INTRATRACHEAL, Dose: 0, 2, 10 MG/KG EVERY 14 D FOR TOTAL DOSES OF 0, 78, 390 MG/KG (STUDY DURATION: 2 YR), Dose: 0, 2, 10 MG/KG EVERY 14 D FOR TOTAL DOSES OF 0, 78, 390 MG/KG (STUDY DURATION: 2 YR)) is reported as “inactive; negative”, the carcinogen call (Species: RAT, Strain/Sex: SPRAGUE-DAWLEY/MALE,FEMALE, Route: INTRAPERITONEAL, Dose: 0, 200 MG/KG EVERY 2 MO FOR TOTAL DOSES OF 0, 600 MG/KG, Dose: 0, 200 MG/KG EVERY 2 MO FOR TOTAL DOSES OF 0, 600 MG/KG, Tumor Site: Type of Lesion: PERITONEUM: TUMORS) is reported as “active; positive” and the carcinogen call (Species: RAT, Strain/Sex: SPRAGUE-DAWLEY/MALE, Route: INTRATRACHEAL, Dose: 0, 2, 10 MG/KG EVERY 14 D FOR TOTAL DOSES OF 0, 78, 390 MG/KG (STUDY DURATION: 2 YR), Dose: 0, 2, 10 MG/KG EVERY 14 D FOR TOTAL DOSES OF 0, 78, 390 MG/KG (STUDY DURATION: 2 YR), Tumor Site: Type of Lesion: LUNG: TUMOR) is reported as “active; positive”. The carcinogen call (Species: RAT, Strain/Sex: SPRAGUE-DAWLEY/MALE, Route: SUBCUTANEOUS, Dose: 0, 2 MG/KG 5/WK FOR TOTAL DOSES OF 0, 1000 MG/KG (STUDY DURATION: 2 YR), Dose: 0, 2 MG/KG 5/WK FOR TOTAL DOSES OF 0, 1000 MG/KG (STUDY DURATION: 2 YR), Tumor Site: Type of Lesion: SUBCUTANEOUS TISSUE: TUMORS) was “active; positive” and the carcinogen call (Species: RAT, Strain/Sex: SPRAGUE-DAWLEY/MALE, Route: SUBCUTANEOUS, Dose: 0, 10 MG/KG 1/WK FOR TOTAL DOSES OF 0, 1000 MG/KG (STUDY DURATION: 2 YR), Dose: 0, 10 MG/KG 1/WK FOR TOTAL DOSES OF 0, 1000 MG/KG (STUDY DURATION: 2 YR), Tumor Site: Type of Lesion: SUBCUTANEOUS TISSUE: TUMORS) was “active; positive”.

`CC(=O)Nc1c(I)c(C(=O)N[C@@H](C=O)[C@@H](O)[C@H](O)[C@H](O)CO)c(I)c(N(C)C(C)=O)c1I` was tested, and the carcinogen call (Species: MOUSE, Strain/Sex: ICR/FEMALE, Route: INTRABRONCHIAL, Dose: 0, 75 µL ONCE ADMINISTERED TO WEANLING MICE (STUDY DURATION: LIFETIME), Tumor Site: Type of Lesion: LUNG: TUMOR) was “active; positive”.

For `O=C1OC2(c3ccccc31)c1ccc(O)c(I)c1Oc1c2ccc(O)c1I`, the carcinogen call (Species: MOUSE, Strain/Sex: ICR/FEMALE, Route: DERMAL, Dose: 0, 1 MG IN 0.1 ML DISTILLED WATER 2/WK FOR A MEAN TOTAL DOSE OF 132.6 MG (STUDY DURATION: 18 MO)) was “inactive; negative” and the carcinogen call (Species: MOUSE, Strain/Sex: ICR/MALE, Route: DERMAL, Dose: 0, 1 MG IN 0.1 ML DISTILLED WATER 2/WK FOR A MEAN TOTAL DOSE OF 132.6 MG (STUDY DURATION: 18 MO)) was “inactive; negative”.

With `CN(C)c1ccc(C(c2ccccc2)c2ccc(N(C)C)cc2)cc1` the carcinogen call (Species: MOUSE, Strain/Sex: B6C3F1/FEMALE, Route: ORAL (DIET), Dose: 0, 91, 204, 408 PPM IN DIET FOR 2 YRS, Dose: 0, 91, 204, 408 PPM IN DIET FOR 2 YRS, Tumor Site: Type of Lesion: LIVER: HEPATOCELLULAR ADENOMA OR CARCINOMA) was “active; positive; incidence of tumors was statistically significant”, the carcinogen call (Species: RAT, Strain/Sex: F344/N/FEMALE, Route: DIET, Dose: 0, 91, 272, 543 PPM IN DIET FOR 2 YRS, Dose: 0, 91, 272, 543 PPM IN DIET FOR 2 YRS, Tumor Site: Type of Lesion: LIVER: HEPATOCELLULAR ADENOMA, THYROID: FOLLICULAR CELL ADENOMA OR CARCINOMA) was “equivocal; none of the tumor incidences reached statistical significance; for th” and the carcinogen call (Species: RAT, Strain/Sex: F344/N/MALE, Route: ORAL (DIET), Dose: 0, 91, 272, 543 PPM IN DIET FOR 2 YRS, Dose: 0, 91, 272, 543 PPM IN DIET FOR 2 YRS, Tumor Site: Type of Lesion: TESTIS: INTERSTITIAL CELL ADENOMA, THYROID: FOLLICULAR CELL ADENOMA OR CARCINOMA) was “equivocal; thyroid tumors did not reach statistical significance”.

For `CC(C)CBr`, the carcinogen call (Species: MOUSE, Route: INTRAPERITONEAL, Tumor Site: Type of Lesion: LUNG) was “active; positive”.

With `C=CC(OCC)OCC` the carcinogen call (Species: HAMSTER, Strain/Sex: SYRIAN/MALE, Route: GAVAGE, Dose: 0, 2 MG/WK FOR 54 OR 64 WK (STUDY DURATION: 92 WK)) was “inactive; negative”, the carcinogen call (Species: RAT, Strain/Sex: F344/FEMALE, Route: ORAL, Dose: 0, 470, 1200 MG/L IN DRINKING WATER 5 D/WK FOR 100 WK (STUDY DURATION: 130 WK), Dose: 0, 470, 1200 MG/L IN DRINKING WATER 5 D/WK FOR 100 WK (STUDY DURATION: 130 WK)) was “inactive; negative” and the carcinogen call (Species: RAT, Strain/Sex: F344/MALE, Route: ORAL, Dose: 0, 470, 1200 MG/L IN DRINKING WATER 5 D/WK FOR 100 WK (STUDY DURATION: 130 WK), Dose: 0, 470, 1200 MG/L IN DRINKING WATER 5 D/WK FOR 100 WK (STUDY DURATION: 130 WK)) was “inactive; negative”.

`CN(C)N=Nc1ccccc1` was tested, and the carcinogen call (Species: RAT, Strain/Sex: SPRAGUE-DAWLEY/FEMALE, Route: INTRAPERITONEAL, TRANSPLACENTAL, Dose: 0, 1 MG/KG ADMINISTERED TO PREGNANT RATS ON DAY 16, 18 AND 20 OF GESTATION (STUDY DURATION: 1 YR), Tumor Site: Type of Lesion: KIDNEY: RENAL MESENCHYMAL TUMOR) was “active; positive”, the carcinogen call (Species: RAT, Strain/Sex: SPRAGUE-DAWLEY/FEMALE, Route: INTRAPERITONEAL, TRANSPLACENTAL, Dose: 0, 10, 30, 60 MG/KG ADMINISTERED TO PREGNANT RATS ON DAY 20 OF GESTATION (STUDY DURATION: 1 YR), Dose: 0, 10, 30, 60 MG/KG ADMINISTERED TO PREGNANT RATS ON DAY 20 OF GESTATION (STUDY DURATION: 1 YR)) was “inactive; negative” and the carcinogen call (Species: RAT, Strain/Sex: SPRAGUE-DAWLEY/MALE,FEMALE, Route: SUBCUTANEOUS, Dose: 50 MG/KG 1/WK FOR LIFE, Tumor Site: Type of Lesion: BRAIN, NERVOUS SYSTEM (CENTRAL)) was “active; positive”. For the same compound, the carcinogen call (Species: RAT, Strain/Sex: SPRAGUE-DAWLEY/MALE, Route: INTRAPERITONEAL, TRANSPLACENTAL, Dose: 0, 1 MG/KG ADMINISTERED TO PREGNANT RATS ON DAY 16, 18 AND 20 OF GESTATION (STUDY DURATION: 1 YR), Tumor Site: Type of Lesion: BRAIN: TUMOR, DENTITIOUS TISSUE: ODONTOMA) was “active; positive”, the carcinogen call (Species: RAT, Strain/Sex: SPRAGUE-DAWLEY/MALE, Route: INTRAPERITONEAL, TRANSPLACENTAL, Dose: 0, 10, 30, 60 MG/KG ADMINISTERED TO PREGNANT RATS ON DAY 20 OF GESTATION (STUDY DURATION: 1 YR), Dose: 0, 10, 30, 60 MG/KG ADMINISTERED TO PREGNANT RATS ON DAY 20 OF GESTATION (STUDY DURATION: 1 YR)) was “inactive; negative” and the carcinogen call (Species: RAT, Strain/Sex: STRAIN-BD, Route: ORAL, SUBCUTANEOUS, Dose: 24.8, 43.4 MG/KG 1/WK (MEAN TOTAL DOSE 1.5 G/KG), Tumor Site: Type of Lesion: BRAIN, NERVOUS SYSTEM) was “active; positive”.

With `Cc1cc(C(C)(C)C)c(O)c(C(C)(C)C)c1` the carcinogen call (Species: MOUSE, Strain/Sex: B6C3F1/FEMALE, Route: ORAL, Dose: 0, 3000, 6000 PPM IN DIET, Dose: 0, 3000, 6000 PPM IN DIET) was “inactive; negative”, the carcinogen call (Species: MOUSE, Strain/Sex: B6C3F1/MALE,FEMALE, Route: ORAL, Dose: 200, 1000, 5000 PPM IN DIET FOR 96 WK, Dose: 200, 1000, 5000 PPM IN DIET FOR 96 WK) was “inactive; negative” and the carcinogen call (Species: MOUSE, Strain/Sex: B6C3F1/MALE, Route: ORAL, Dose: 0, 3000, 6000 PPM IN DIET, Dose: 0, 3000, 6000 PPM IN DIET) was “inactive; negative”. For the same compound, the carcinogen call (Species: RAT, Strain/Sex: F344/FEMALE, Route: ORAL, Dose: 0, 3000, 6000 PPM IN DIET, Dose: 0, 3000, 6000 PPM IN DIET) was “inactive; negative” and the carcinogen call (Species: RAT, Strain/Sex: F344/MALE, Route: ORAL, Dose: 0, 3000, 6000 PPM IN DIET, Dose: 0, 3000, 6000 PPM IN DIET) was “inactive; negative”.
